Results reported in patent US4826975A, “Fused cycloaliphatic aminoalcohols” (Maggioni-Winthrop S.P.A., priority 1986, dated 1989).
One block for each compound: values may come before it.

How the values were obtained:
[1] = oral acute toxicity in male mice; settings: mouse, in vivo
Method: The oral acute toxicity in male mice of the invention compound is very low. […]; and higher than 2,000 mg/kg for MG 38005, MG 28401, MG 28414 and MG 28427.

[2] = system: Normolipemic rats; test: hypolipemic activity in normolipemic rats (serum lipids, liver weight); type: in vivo, rat
Method: Total cholesterol (CHOL), triglycerides (TG), HDL cholesterol CHOL-HDL) were assayed in serum and the liver was weighed.

[3] = system: toxic adrenaline doses; test: animal or person; type: in vivo, mice; settings: Mus musculus, po; 2 hrs before 14.5 mg/kg 1-adrenaline i.p., mortality after 24 hrs; read-out: DP50 (50% protective dose)
[4] = system: DOCA rats; type: in vivo, rat; settings: 15 mg/kg po
Method: Changes in blood pressure (mm Hg) before (T=O) and after treatment (2, 4 and 6 hrs) were measured according to the method of tail artery plethysmography reported in "Spontaneously hypertensive rats (SHR), guidelines for breeding, care and use", SHR Conference, 1976, page 11.
The heart rate was also […] (BP Recorder No. 8006 supplied by Basile, Comerio, Italy). The arterial pressure before the treatment was 210±10 mmHg in SHR and 200±10 in DOCA rats.

[5] = system: SHR; test: anti-hypertensive activity in spontaneously hypertensive (SH) rats, tail artery plethysmography; settings: 15 mg/kg po
[6] = system: gasping time in mice; test: anti-hypoxic activity, gasping time after decapitation; type: in vivo
Method: The anti-hypoxic activity was determined according to Yasuda et al., Arch. Int. Pharmacodyn. 233, 136, 1978.
Groups of 10 male mice (21-23 g) were treated orally with vehicle (controls) and the invention compounds. After 45 or 90 minutes the animals were decapitated and the gasping time was determined. Table 6 gives the results obtained after administration of some of the invention compounds which display an activity higher than Suloctidil.

[7] = system: platelet aggregation; test: effect on collagen-stimulated platelet aggregation, ex vivo; type: in vivo; settings: Rattus norvegicus, 0.15 mM/kg oral, 1 hr, collagen 2-4 mcg/ml, read-out: % inhibition, Aggregation rate
Method: The effect on platelet aggregation was tested ex vivo according to the method of Minsker, (J. Pharmacol. Exp. Ther. 210, 37, 1979) slightly modified. Groups of 3 rats (280-350 g) were treated orally with vehicle (controls) and compounds (0.15 mM/kg). Blood was collected and pooled from rats of each group 1 hr after treatment and the platelet rich plasma (PRP) was separated by centrifugation.
Platelet aggregation was stimulated with collagen (2-4-mcg/ml) added simultaneously to PRP of control and treated rats. The results were assessed photometrically. Each test was replicated 4 times in groups of 3 animals. Aggregation curves were evaluated in terms of two parameters namely maximum optical density variation (maximum aggregation) and aggregation rate.

[8] = 100 mg/kg p.o., pretreatment 45 min.
[9] = 100 mg/kg p.o., pretreatment 90 min.

Compound: COc1cc2c(c(OC)c1OC)C[C@H](N1CCC(NC(=O)c3ccccc3)CC1)[C@@H]2O (relative stereo) [MG 38107, cis-2-(4-Benzamido-1-piperidinyl)-4,5,6-trimethoxy-1-indanol]
- LD50 [1]: > 1000 mg/kg
- CHOL, % difference from control ([2]; 0.185 mM/kg po × 4 days): -35.7%
- CHOL-HDL, % difference from control ([2]; 0.185 mM/kg po × 4 days): -8.5%
- Liver weight, % difference from control ([2]; 0.185 mM/kg po × 4 days): +5.6%
- TG, % difference from control ([2]; 0.185 mM/kg po × 4 days): -50.9%
- CHOL, % difference from control ([2]; 0.370 mM/kg po × 4 days): -30.7%
- CHOL-HDL, % difference from control ([2]; 0.370 mM/kg po × 4 days): -26.3%
- Liver weight, % difference from control ([2]; 0.370 mM/kg po × 4 days): 0%
- TG, % difference from control ([2]; 0.370 mM/kg po × 4 days): -58.5%
- hypolipemic effect / activity (in words) ([2]; oral): higher than with Clofibrate
- effect on CHOL and TG (in words) ([2]; oral, 4 days): marked decrease both of CHOL and TG
- ED50 [3]: 2.45 mg/kg

Compound: COc1cc2c(cc1OC)[C@@H](O)[C@@H](N1CCC(NC(=O)c3ccccc3)CC1)C2 (relative stereo) [MG 38112, cis 2-(4-Benzamido-1-piperidinyl)-5,6-dimethoxy-1-indanol]
- Max. changes in systolic pressure [4]: -19 mmHg
- LD50 [1]: > 1000 mg/kg
- CHOL, % difference from control ([2]; 0.185 mM/kg po × 4 days): -45.2%
- CHOL-HDL, % difference from control ([2]; 0.185 mM/kg po × 4 days): -18.6%
- Liver weight, % difference from control ([2]; 0.185 mM/kg po × 4 days): 0%
- TG, % difference from control ([2]; 0.185 mM/kg po × 4 days): -41.8%
- CHOL, % difference from control ([2]; 0.370 mM/kg po × 4 days): -52.7%
- CHOL-HDL, % difference from control ([2]; 0.370 mM/kg po × 4 days): -21.4%
- Liver weight, % difference from control ([2]; 0.370 mM/kg po × 4 days): +3.9%
- TG, % difference from control ([2]; 0.370 mM/kg po × 4 days): -58.9%
- hypolipemic effect / activity (in words) ([2]; oral): higher than with Clofibrate
- effect on CHOL and TG (in words) ([2]; oral, 4 days): marked decrease both of CHOL and TG
- Max. changes in systolic pressure [5]: -35 mmHg
- ED50 [3]: 4.4 mg/kg

Compound: COc1cc2c(cc1OC)[C@H](O)[C@@H](N1CCC(n3c(=O)[nH]c4cc(Cl)ccc43)CC1)C2 (relative stereo) [MG 38131, trans-2-[4-(2-Oxo-5-chloro-1-benzimidazolinyl)-1-piperidinyl]-5,6-dimethoxy-1-indanol]
- CHOL, % difference from control ([2]; 0.370 mM/kg po × 4 days): ~ 0%
- CHOL-HDL, % difference from control ([2]; 0.370 mM/kg po × 4 days): +57.2%
- Liver weight, % difference from control ([2]; 0.370 mM/kg po × 4 days): +6.9%
- TG, % difference from control ([2]; 0.370 mM/kg po × 4 days): -41.4%

Compound: COc1cc2c(cc1OC)[C@@H](O)[C@@H](N1CCN(c3ccccc3OC)CC1)C2 (relative stereo) [MG 38100, cis-2-[4-(2-Methoxyphenyl)-1-piperazinyl]-5,6-dimethoxy-1-indanol]
- Gasping time, % diff. from control [6, 8]: +95.7%
- LD50 [1]: > 500 mg/kg
- ED50 [3]: 8.5 mg/kg

Compound: COc1cc2c(c(OC)c1OC)CC(N1CCC(n3c(=O)[nH]c4ccccc43)CC1)C2=O (stereo not drawn) [MG 38005, 2-[4-(2-oxo-1-benzimidazolinyl)-1-piperidinyl]-4,5,6-trimethoxy-1-indanone]
- Max. changes in systolic pressure [4]: -27 mmHg
- LD50 [1]: > 2000 mg/kg
- Max. changes in systolic pressure [5]: -42 mmHg

Compound: COc1cc2nc(N3CCN(C(=O)c4ccco4)CC3)nc(N)c2cc1OC [Prazosin, reference compound]
- ED50 [3]: 0.7 mg/kg

Compound: Fc1ccc(C(c2ccc(F)cc2)N2CCN(C/C=C/c3ccccc3)CC2)cc1 [Flunarizine, reference compound]
- Gasping time, % diff. from control ([6]; 50 mg/kg p.o., pretreatment 90 min.): +68.7%

- Liver weight, % difference from control ([2]; 0.205 mM/kg po × 8 days): +4%
- Liver weight, % difference from control ([2]; 0.820 mM/kg po × 4 days): ~ 0%
Compound: CC(C)(Sc1cc(C(C)(C)C)c(O)c(C(C)(C)C)c1)Sc1cc(C(C)(C)C)c(O)c(C(C)(C)C)c1 [Probucol, reference compound]
- CHOL, % difference from control ([2]; 0.205 mM/kg po × 8 days): -25.0%
- CHOL-HDL, % difference from control ([2]; 0.205 mM/kg po × 8 days): -26%
- TG, % difference from control ([2]; 0.205 mM/kg po × 8 days): -28.0%
- CHOL, % difference from control ([2]; 0.820 mM/kg po × 4 days): ~ 0%
- CHOL-HDL, % difference from control ([2]; 0.820 mM/kg po × 4 days): +18.5%
- TG, % difference from control ([2]; 0.820 mM/kg po × 4 days): ~ 0%
- hypolipemic effect / activity (in words) ([2]; oral): moderate and is noted only after prolonged treatment (8 days)

Compound: COc1cc2c(cc1OC)[C@@H](O)[C@H](N1CCN(C(=O)C=Cc3ccccc3)CC1)C2 (relative stereo) [MG 28414, trans 2-[4-(1-Oxo-3-phenyl-2-propenyl)-1-piperazinyl]-5,6-dimethoxy-1-indanol]
- inhibition at 0.15 mmol/kg [7]: 58%
- LD50 [1]: > 2000 mg/kg

Compound: CCCCCCCCN[C@@H]1Cc2c(cc(OC)c(OC)c2OC)[C@H]1O (relative stereo) [MG 38006, trans 2-(n-Octylamino)-4,5,6-trimethoxy-1-indanol]
- Gasping time, % diff. from control [6, 8]: +33.2%
- LD50 [1]: > 1000 mg/kg

Compound: COc1cc2c(cc1OC)[C@H](O)[C@H](N1CCC(n3c(=O)[nH]c4cc(Cl)ccc43)CC1)C2 (relative stereo) [MG 38121, cis 2-[4-(2-Oxo-5-chloro-1-benzimidazolinyl)-1-piperidinyl]-5,6-dimethoxy-1-indanol]
- ED50 [3]: 2.75 mg/kg

Compound: CCCCCCCCN[C@H]1Cc2cc(OC)c(OC)cc2[C@@H]1O (relative stereo) [MG 28400, trans 5,6-Dimethoxy-2-(n-octylamino)-1-indanol]
- Gasping time, % diff. from control [6, 8]: +53.8%
- LD50 [1]: > 500 mg/kg

Compound: COc1cc2c(c(OC)c1OC)CC[C@H](N1CCC(n3c(=O)[nH]c4cc(Cl)ccc43)CC1)[C@H]2O (relative stereo) [MG 16456, trans-2-[4(2-Oxo-5-chloro-1-benzimidazolinyl)-1-piperidinyl]-5,6,7-trimethoxy-1-tetralol]
- Gasping time, % diff. from control [6, 9]: +36.3%
- ED50 [3]: 1.85 mg/kg

Compound: COc1cc2c(cc1OC)C(=O)C(N1CCC(NC(=O)c3ccccc3)CC1)C2 (stereo not drawn) [MG 38128]
- CHOL, % difference from control ([2]; 0.370 mM/kg po × 4 days): ~ 0%
- CHOL-HDL, % difference from control ([2]; 0.370 mM/kg po × 4 days): +46.8%
- Liver weight, % difference from control ([2]; 0.370 mM/kg po × 4 days): +8.6%
- TG, % difference from control ([2]; 0.370 mM/kg po × 4 days): -38.8%
- effect on TG and CHOL-HDL (in words) ([2]; oral, 4 days): decrease TG and increase CHOL-HDL

Compound: Cc1ccc(N(CC2=NCCN2)c2cccc(O)c2)cc1 [Phentolamine, reference compound]
- ED50 [3]: 8 mg/kg

Compound: COc1cc2c(c(OC)c1OC)C[C@H](N1CCC(n3c(=O)[nH]c4cc(Cl)ccc43)CC1)[C@H]2O (relative stereo) [MG 38122, trans-2-[4-(2-Oxo-5-chloro-1-benzimidazolinyl)-1-piperidinyl]-4,5,6-trimethoxy-1-indanol]
- Max. changes in systolic pressure [4]: -28 mmHg
- Max. changes in systolic pressure [5]: -41.9 mmHg

Compound: COc1cc2c(c(OC)c1OC)C[C@@H](N1CCC(n3c(=O)[nH]c4cc(Cl)ccc43)CC1)[C@H]2O (relative stereo) [MG 38119, cis-2-[4-(2-Oxo-5-chloro-1-benzimidazolinyl)-1-piperidinyl]-4,5,6-trimethoxy-1-indanol]
- ED50 [3]: 4.4 mg/kg

Compound: CCCCCCCCNC(C)C(O)c1ccc(SC(C)C)cc1 (stereo not drawn) [Suloctidil, reference compound]
- Gasping time, % diff. from control [6, 8]: +27.5%
- Gasping time, % diff. from control [6, 9]: +11.7%
- inhibition at 0.15 mmol/kg [7]: 57.5%

Compound: COc1cc2c(c(OC)c1OC)CC[C@H](N1CCC(n3c(=O)[nH]c4ccccc43)CC1)[C@H]2O (relative stereo) [MG 38028, trans 2-[4-(2-Oxo-1-benzimidazolidinilyl)-1-piperidinyl]-5,6,7-trimethoxy-1-tetralol]
- ED50 [3]: 0.73 mg/kg
